Test results from US7678390B2, “Carbon monoxide as a biomarker and therapeutic agent” (priority 1999, dated 2010).

What was measured:
[1] = test system: rats exposed to hyperoxia (>98% O2); assay: Survival of rats in lethal hyperoxia in the presence of CO; type: in vivo, rat; settings: for % Survival 72 h / % Survival 100 h: hyperoxia (>98%)
Source text: Pathogen-free male Sprague-Dawley rats (250-300 g) were purchased from Harlan Sprague-Dawley (Indianapolis, Ind.) and allowed to acclimate upon arrival for 7 days prior to experimentation. Animals were fed rodent chow and water ad libitum. All experimental protocols were approved by the Animal Care and Use Committee.
Animals were exposed to >98% O2 or 98% O2+CO mixtures at a flow rate of 12 liters/min in a 3.70-cubic-foot glass exposure chamber. Animals were supplied food and water during the exposures. CO at a concentration of 1% (10,000 ppm) in compressed air was mixed with >98% O2 in a stainless steel mixing cylinder prior to entering the exposure chamber. By varying the flow rates of CO into the mixing cylinder, concentrations delivered to the exposure chamber were controlled. Because the flow rate was primarily determined by the O2 flow, only the CO flow was changed to generate the different concentrations delivered to the exposure chamber. A carbon monoxide analyzer (Interscan Corporation, Chatsworth, Calif.) was used to measure CO levels continuously in the chamber. Gas samples were taken by the analyzer through a port in the top of the exposure chamber at a rate of 1 liter/min and analyzed by electrochemical detection with a sensitivity of 10 ppm to 600 ppm. CO levels in the chamber were recorded at hourly intervals and there were no changes in chamber CO concentrations once the chamber had equilibrated. O2 concentrations in the chamber were determined using a gas spectrometer.
We used clinically relevant in vivo models of oxidative stress to test the hypothesis that CO mediates the protective effects of HO-1 against oxidative stress. Hyperoxia when administered to animals produces pathophysiologic changes similar to those seen in human adult respiratory distress syndrome (ARDS) (Lee, et al., Am. J. Resp Cell Mol Biol. 14: 556-568; and Clerch, and Massaro, J. Clin. Invest. 91: 499-1508). […] These rats will uniformly die by 72 h of continuous hyperoxic exposure (Lee, et al. and Clerch, supra). In this study, one group of rats were placed in hyperoxia (>98% oxygen O2) alone while the second group of rats were placed in an identical chamber and exposed to the same levels of hyperoxia in the presence of a low concentration of CO (250 ppm). […] We observed concentration dependent protection against hyperoxia at both 72 and 100 h of hyperoxia exposure (Table 1). (P-value for the association between survival and CO concentration is 0.001 by logistic regression). Carboxyhemoglobin levels, a standard measurement of CO levels in the blood, correlated with increasing concentrations of CO exposure and survival of animals to lethal hyperoxia (Table 1, below).

[2] = test system: rats given lipopolysaccharide; assay: LPS-induced neutrophil influx into the airways of rats; type: in vivo, rat; settings: LPS 3 mg/kg i.v., exposed to CO
Experimental: Animals were anesthesized with sodium pentobarbital 24 h after LPS administration or 56 h of hyperoxia exposure. BAL (35 ml/kg) was performed 4 times with PBS (pH 7.4). Cells were pooled from the lavages and centrifuged at 1200 g for 10 min. The supernatant was discarded and cells were resuspended in PBS. Cell counts were performed using a Neubaur hemocytometer. For differential analysis, samples were cytocentrifuged and stained with Diff-Quik. Measurement of Injury Markers Rats were removed at 56 h of hyperoxia and anesthetized with sodium pentobarbital. The pleural effusion was collected by inserting an 18 gauge needle and 10 cc syringe through the diaphragm and withdrawing all fluid present in the pleural cavity. BAL was performed as described above, and the first lavage was centrifuged at 1200 g for 10 min and the supernatant was assayed for the protein albumin as determined by Bromcresol Green Kit (BCG) from Sigma (St. Louis, Mo.). […] At each time point, 1 cc of blood was drawn into a heparinized syringe, sealed and placed on ice until analyzed for oxygen tension. Arterial oxygen tension and carboxyhemoglobin were determined using a BG3 Instrumentation Laboratory Blood Gas Analyzer and Co-oximeter (Boston, Mass.). […]

[C-]#[O+] [CO, carbon monoxide]
survival in hyperoxia ([1]; hyperoxia (>98% O2), CO 250 ppm, 72 h): all animals were alive at the 72 h time point | % Survival 72 h ([1]; CO 50 ppm, 72 h): 33% | % Survival 100 h ([1]; CO 50 ppm): 0% | % Survival 72 h ([1]; CO 100 ppm, 72 h): 50% | % Survival 100 h ([1]; CO 100 ppm): 50% | % Survival 72 h ([1]; CO 250 ppm, 72 h): 100% | % Survival 100 h ([1]; CO 250 ppm): 80% | % Survival 72 h ([1]; CO 500 ppm, 72 h): 100% | % Survival 100 h ([1]; CO 500 ppm): 80% | LPS-induced neutrophil influx into the airways [2]: significantly inhibited
